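48-hour exposure; five concentrations; linearly interpolated endpoints. GI50 is the concentration that inhibits growth by half. TGI denotes the concentration required for complete inhibition of growth.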
Legend:
Test in all cases: NCI anticancer screen, dose series, 48 h
786-0 renal = test system: 786-0 renal
A498 renal = test system: A498 renal
A549 NSCLC = test system: A549 NSCLC
ACHN renal = test system: ACHN renal
BT-549 breast = test system: BT-549 breast
CAKI-1 renal = test system: CAKI-1 renal
CCRF-CEM leukemia = test system: CCRF-CEM leukemia
COLO 205 colon = test system: COLO 205 colon
DU-145 prostate = test system: DU-145 prostate
EKVX NSCLC = test system: EKVX NSCLC
HCT-116 colon = test system: HCT-116 colon
HCT-15 colon = test system: HCT-15 colon
HL-60(TB) leukemia = test system: HL-60(TB) leukemia
HOP-62 NSCLC = test system: HOP-62 NSCLC
HOP-92 NSCLC = test system: HOP-92 NSCLC
HS 578T breast = test system: HS 578T breast
HT29 colon = test system: HT29 colon
IGROV1 ovarian = test system: IGROV1 ovarian
K-562 leukemia = test system: K-562 leukemia
KM12 colon = test system: KM12 colon
LOX IMVI melanoma = test system: LOX IMVI melanoma
M14 melanoma = test system: M14 melanoma
MALME-3M melanoma = test system: MALME-3M melanoma
MCF7 breast = test system: MCF7 breast
MDA-MB-231 breast = test system: MDA-MB-231 breast
MDA-MB-435 = test system: MDA-MB-435
MOLT-4 leukemia = test system: MOLT-4 leukemia
NCI-H226 lung = test system: NCI-H226 lung
NCI-H23 lung = test system: NCI-H23 lung
NCI-H460 lung = test system: NCI-H460 lung
NCI/ADR-RES ovarian = test system: NCI/ADR-RES ovarian
OVCAR-3 ovarian = test system: OVCAR-3 ovarian
OVCAR-4 ovarian = test system: OVCAR-4 ovarian
OVCAR-5 ovarian = test system: OVCAR-5 ovarian
OVCAR-8 ovarian = test system: OVCAR-8 ovarian
PC-3 prostate = test system: PC-3 prostate
RPMI-8226 leukemia = test system: RPMI-8226 leukemia
RXF 393 renal = test system: RXF 393 renal
SF-268 CNS = test system: SF-268 CNS
SF-295 CNS = test system: SF-295 CNS
SF-539 CNS = test system: SF-539 CNS
SK-MEL-2 melanoma = test system: SK-MEL-2 melanoma
SK-MEL-28 melanoma = test system: SK-MEL-28 melanoma
SK-MEL-5 melanoma = test system: SK-MEL-5 melanoma
SK-OV-3 ovarian = test system: SK-OV-3 ovarian
SN12C renal = test system: SN12C renal
SNB-19 CNS = test system: SNB-19 CNS
SNB-75 CNS = test system: SNB-75 CNS
SR leukemia = test system: SR leukemia
SW-620 colon = test system: SW-620 colon
T-47D breast = test system: T-47D breast
TK-10 renal = test system: TK-10 renal
U251 CNS = test system: U251 CNS
UACC-257 melanoma = test system: UACC-257 melanoma
UACC-62 melanoma = test system: UACC-62 melanoma
UO-31 renal = test system: UO-31 renal

CCC(C)[C@H]1O[C@]2(CC[C@@H]1C)C[C@@H]1C[C@@H](C/C=C(\C)[C@@H](OC3C[C@H](OC)C(O[C@H]4C[C@H](OC)[C@@H](O)[C@H](C)O4)[C@H](C)O3)[C@@H](C)/C=C/C=C3\CO[C@@H]4[C@H](O)C(C)=C[C@@H](C(=O)O1)[C@]34O)O2 (some centres not stated)
GI50 (786-0 renal): 3.66 µM
TGI (786-0 renal): 14 µM
GI50 (A498 renal): 1790 nM
TGI (A498 renal): 7.72 µM
GI50 (A549 NSCLC): 2070 nM
TGI (A549 NSCLC): 11.3 µM
GI50 (ACHN renal): 1730 nM
TGI (ACHN renal): 3.48 µM
GI50 (BT-549 breast): 2730 nM
TGI (BT-549 breast): 7.3 µM
GI50 (CAKI-1 renal): 2600 nM
TGI (CAKI-1 renal): 11.2 µM
GI50 (CCRF-CEM leukemia): 4 µM
TGI (CCRF-CEM leukemia): 21.2 µM
GI50 (COLO 205 colon): 1630 nM
TGI (COLO 205 colon): 3.1 µM
GI50 (DU-145 prostate): 5.59 µM
TGI (DU-145 prostate): 18.1 µM
GI50 (EKVX NSCLC): 2950 nM
TGI (EKVX NSCLC): 15.1 µM
GI50 (HCT-116 colon): 2720 nM
TGI (HCT-116 colon): 10.7 µM
GI50 (HCT-15 colon): 2740 nM
TGI (HCT-15 colon): 10.2 µM
GI50 (HL-60(TB) leukemia): 2180 nM
TGI (HL-60(TB) leukemia): 5.03 µM
GI50 (HOP-62 NSCLC): 1800 nM
TGI (HOP-62 NSCLC): 4.85 µM
GI50 (HOP-92 NSCLC): 1980 nM
TGI (HOP-92 NSCLC): 8.18 µM
GI50 (HS 578T breast): 3.76 µM
TGI (HS 578T breast): 20.7 µM
GI50 (HT29 colon): 2400 nM
TGI (HT29 colon): 5.81 µM
GI50 (IGROV1 ovarian): 2950 nM
TGI (IGROV1 ovarian): 13.5 µM
GI50 (K-562 leukemia): 3.88 µM
TGI (K-562 leukemia): 15.4 µM
GI50 (KM12 colon): 3.77 µM
TGI (KM12 colon): 14 µM
GI50 (LOX IMVI melanoma): 2300 nM
TGI (LOX IMVI melanoma): 5.79 µM
GI50 (M14 melanoma): 3.15 µM
TGI (M14 melanoma): 11.2 µM
GI50 (MALME-3M melanoma): 2740 nM
TGI (MALME-3M melanoma): 14.5 µM
GI50 (MCF7 breast): 3.02 µM
TGI (MCF7 breast): 10.8 µM
GI50 (MDA-MB-231 breast): 2310 nM
TGI (MDA-MB-231 breast): 6.85 µM
GI50 (MDA-MB-435): 3.89 µM
TGI (MDA-MB-435): 15.9 µM
GI50 (MOLT-4 leukemia): 4.77 µM
TGI (MOLT-4 leukemia): 20.2 µM
GI50 (NCI-H226 lung): 1580 nM
TGI (NCI-H226 lung): 3.79 µM
GI50 (NCI-H23 lung): 3.21 µM
TGI (NCI-H23 lung): 13.7 µM
GI50 (NCI-H460 lung): 2910 nM
TGI (NCI-H460 lung): 10.6 µM
GI50 (NCI/ADR-RES ovarian): 3.43 µM
TGI (NCI/ADR-RES ovarian): 13.7 µM
GI50 (OVCAR-3 ovarian): 3.12 µM
TGI (OVCAR-3 ovarian): 9.3 µM
GI50 (OVCAR-4 ovarian): 3.28 µM
TGI (OVCAR-4 ovarian): 10.8 µM
GI50 (OVCAR-5 ovarian): 2050 nM
TGI (OVCAR-5 ovarian): 5.67 µM
GI50 (OVCAR-8 ovarian): 3.06 µM
TGI (OVCAR-8 ovarian): 12.5 µM
GI50 (PC-3 prostate): 2640 nM
TGI (PC-3 prostate): 12.8 µM
GI50 (RPMI-8226 leukemia): 2950 nM
TGI (RPMI-8226 leukemia): 14.9 µM
GI50 (RXF 393 renal): 1370 nM
TGI (RXF 393 renal): 2810 nM
GI50 (SF-268 CNS): 4.14 µM
TGI (SF-268 CNS): 15.6 µM
GI50 (SF-295 CNS): 2540 nM
TGI (SF-295 CNS): 10.9 µM
GI50 (SF-539 CNS): 1910 nM
TGI (SF-539 CNS): 3.96 µM
GI50 (SK-MEL-2 melanoma): 2040 nM
TGI (SK-MEL-2 melanoma): 4.79 µM
GI50 (SK-MEL-28 melanoma): 2670 nM
TGI (SK-MEL-28 melanoma): 7.21 µM
GI50 (SK-MEL-5 melanoma): 1490 nM
TGI (SK-MEL-5 melanoma): 2820 nM
GI50 (SK-OV-3 ovarian): 2000 nM
TGI (SK-OV-3 ovarian): 5.04 µM
GI50 (SN12C renal): 3.08 µM
TGI (SN12C renal): 11.4 µM
GI50 (SNB-19 CNS): 3.75 µM
TGI (SNB-19 CNS): 15.6 µM
GI50 (SNB-75 CNS): 2690 nM
TGI (SNB-75 CNS): 7.56 µM
GI50 (SR leukemia): 5.79 µM
TGI (SR leukemia): 33.7 µM
GI50 (SW-620 colon): 3.44 µM
TGI (SW-620 colon): 13.8 µM
GI50 (T-47D breast): 1570 nM
TGI (T-47D breast): 3.35 µM
GI50 (TK-10 renal): 3.08 µM
TGI (TK-10 renal): 12.7 µM
GI50 (U251 CNS): 2210 nM
TGI (U251 CNS): 10.6 µM
GI50 (UACC-257 melanoma): 2170 nM
TGI (UACC-257 melanoma): 6.25 µM
GI50 (UACC-62 melanoma): 1890 nM
TGI (UACC-62 melanoma): 6.5 µM
GI50 (UO-31 renal): 1850 nM
TGI (UO-31 renal): 10.2 µM
